These results are taken from patent US8710060B2, “Piperazinyl methyl phenyl cyclohexane compound” (Daiichi Sankyo Company, Limited, priority 2010, dated 2014).

pEC50: −log10 of the molar value. Counter-ions that a name gives are not always drawn.

Broadly, the pEC50 is the EC50 on a negative log10 scale, so that one unit is a factor of ten. The low end stands for a high EC50, the high end for a low EC50.

The experiment deals with longitudinal muscle strip from the duodenal smooth muscle layer. The experiment is described as follows: Measurement of intestinal contractile activity (Magnus organ bath, cumulative dosing). The note with it: Oryctolagus cuniculus; male NZW rabbit duodenal longitudinal muscle strip, Krebs solution 31° C., test compound 0.01 nM to 10 μM cumulative dosing; contraction by carbachol 10 μM taken as 100%. How it is done:
Bioactivity Test (Measurement of Intestinal Contractile Activity)
A male NZW rabbit (body weight: 2.5 to 3.0 kg, KITAYAMA LABES CO., LTD., NAGANO) was used.
Carbachol (carbamylcholine chloride, Sigma-Aldrich Japan K.K.) was purchased and used. Each test compound was dissolved in dimethyl sulfoxide (DMSO, Sigma-Aldrich Japan K.K.), and then suspended in physiological saline. Carbachol was dissolved in physiological saline.
(3) Experimental Method and Results
Pentobarbital sodium (Kyoritsu Seiyaku Corporation, Osaka) was administered to the rabbit through the auricular vein, and the rabbit was euthanized by exsanguination under anesthesia. Thereafter, the duodenum was excised from the rabbit and rapidly rinsed with Krebs solution (NaCl 120.0 mM, KCl 4.7 mM, CaCl2 2.4 mM, KH2PO4 1.0 mM, MgSO4 1.2 mM, NaHCO3 24.5 mM, and glucose 5.6 mM, pH 7.4). Then, a longitudinal muscle strip (length: 10 mm, width: 3 mm) was prepared from the duodenal smooth muscle layer obtained by stripping off the mucosal layer from the duodenum. The prepared strip was mounted in an organ bath and contained in 20 mL of Krebs solution gassed with 95% O2 and 5% CO2 at 31° C. so as to suppress excessive locomotion, and a tension of 1 g was applied thereto. The strip was left to stand for 1 hour or more while replacing the Krebs solution every 15 minutes until the strip was equilibrated. Before starting the experiment, stimulation with carbachol at 10 μM was repeatedly applied until a reproducible contraction was obtained. The contractile activity was measured with an FD pickup (TB-611T, Nihon Kohden Corporation, Tokyo) and recorded on a pen recorder (RECTI HORIZ-8K, Sanei, Tokyo). Each test compound was added to the Krebs solution at 0.01 nM to 10 μM, and the strip was contracted by cumulative dosing. The contractile activity at each concentration was determined when the contractile activity at the time of stimulation with carbachol at 10 μM was taken as 100%, and the EC50 value of each test compound was determined. The EC50 values are shown below.
For `C[C@H]1CN(Cc2ccc(N(C)C(=O)[C@H]3CC[C@H](Oc4ccc(F)cc4)CC3)cc2)CCN1` [Example 1, Trans-4-(4-fluorophenoxy)-N-methyl-N-(4-{[(3S)-3-methylpiperazin-1-yl]methyl}phenyl)cyclohexanecarboxamide], the pEC50 is 7.55.

Regarding `Cc1cc(N(C)C(=O)[C@H]2CC[C@H](Oc3ccc(F)cn3)CC2)ccc1CN1CCN[C@@H](C)C1` [Example 4, Trans-4-[(5-fluoropyridin-2-yl)oxy]-N-methyl-N-(3-methyl-4-{[(3S)-3-methylpiperazin-1-yl]methyl}phenyl)cyclohexanecarboxamide hydrochloride], the negative-log EC50 (pEC50) is 8.60. This pEC50 is 1.05 log units higher than that of the molecule before.

In turn, `Cc1cc(N(C)C(=O)[C@H]2CC[C@H](Oc3cccc(CO)c3)CC2)ccc1CN1CCN[C@@H](C)C1` [Example 5, Trans-4-[3-(hydroxymethyl)phenoxy]-N-methyl-N-(3-methyl-4-{[(3S)-3-methylpiperazin-1-yl]methyl}phenyl)cyclohexanecarboxamide hydrochloride] gave a pEC50 of 8.14.

The molecule `CCOC(=O)Cc1cccc(O[C@H]2CC[C@H](C(=O)N(C)c3ccc(CN4CCN[C@@H](C)C4)c(C)c3)CC2)c1` [Example 16, Ethyl [3-({trans-4-[methyl(3-methyl-4-{[(3S)-3-methylpiperazin-1-yl]methyl}phenyl)carbamoyl]cyclohexyl}oxy)phenyl]acetate hydrochloride] had a pEC50 of 8.62.

On to `Cc1cc(N(C)C(=O)[C@H]2CC[C@H](Oc3ccnc(C#N)c3)CC2)ccc1CN1CCN[C@@H](C)C1` [Example 22, Trans-4-[(2-cyanopyridin-4-yl)oxy]-N-methyl-N-(3-methyl-4-{[(3S)-3-methylpiperazin-1-yl]methyl}phenyl)cyclohexanecarboxamide hydrochloride], for which the pEC50 was 8.32.

Consider `Cc1cc(N(C)C(=O)[C@H]2CC[C@H](Oc3cccc(CC(=O)NC(C)C)c3)CC2)ccc1CN1CCN[C@@H](C)C1` [Example 30, Trans-4-{3-[2-(isopropylamino)-2-oxoethyl]phenoxy}-N-methyl-N-(3-methyl-4-{[(3S)-3-methylpiperazin-1-yl]methyl}phenyl)cyclohexanecarboxamide hydrochloride], for which the negative logarithm of the EC50 (pEC50) is 8.52.

Regarding `Cc1cc(N(C)C(=O)[C@H]2CC[C@H](Oc3cccc(CC(=O)NC(C)(C)C)c3)CC2)ccc1CN1CCN[C@@H](C)C1` [Example 33, Trans-4-{3-[2-(tert-butylamino)-2-oxoethyl]phenoxy}-N-methyl-N-(3-methyl-4-{[(3S)-3-methylpiperazin-1-yl]methyl}phenyl)cyclohexanecarboxamide], the pEC50 is 8.82.

As to `Cc1cc(N(C)C(=O)[C@H]2CC[C@H](Oc3cccc(CC(=O)N(C)C(C)C)c3)CC2)ccc1CN1CCN[C@@H](C)C1` [Example 34, Trans-4-(3-{2-[isopropyl(methyl)amino]-2-oxoethyl}phenoxy)-N-methyl-N-(3-methyl-4-{[(3S)-3-methylpiperazin-1-yl]methyl}phenyl)cyclohexanecarboxamide], the pEC50 was 8.68. The pEC50 values of the last two molecules are within 0.2 log units of each other.

Regarding `Cc1cc(N(C)C(=O)[C@H]2CC[C@H](Oc3cccc(CS(C)(=O)=O)c3)CC2)ccc1CN1CCN[C@@H](C)C1` [Example 42, hydrochloride], the pEC50 was 8.32.

As to `COCCOCc1cccc(O[C@H]2CC[C@H](C(=O)N(C)c3ccc(CN4CCN[C@@H](C)C4)c(C)c3)CC2)c1` [Example 53, Trans-4-{3-[(2-methoxyethoxy)methyl]phenoxy}-N-methyl-N-(3-methyl-4-{[(3S)-3-methylpiperazin-1-yl]methyl}phenyl)cyclohexanecarboxamide hydrochloride], the pEC50 is 8.17.

As to `Cc1cc(N(C)C(=O)[C@H]2CC[C@H](Oc3cccc(COC[C@@H](C)O)c3)CC2)ccc1CN1CCN[C@@H](C)C1` [Example 56, Trans-4-[3-({[(2R)-2-hydroxypropyl]oxy}methyl)phenoxy]-N-methyl-N-(3-methyl-4-{[(3S)-3-methylpiperazin-1-yl]methyl}phenyl)cyclohexanecarboxamide hydrochloride], the pEC50 was 8.92.

The molecule `Cc1cc(N(C)C(=O)[C@H]2CC[C@H](Oc3cccc(COCC(C)(C)O)c3)CC2)ccc1CN1CCN[C@@H](C)C1` [Example 57, Trans-4-{3-[(2-hydroxy-2-methylpropoxy)methyl]phenoxy}-N-methyl-N-(3-methyl-4-{[(3S)-3-methylpiperazin-1-yl]methyl}phenyl)cyclohexanecarboxamide hydrochloride] showed a pEC50 of 7.95.

Take `Cc1cc(N(C)C(=O)[C@H]2CC[C@H](Nc3cccc(COCC(C)(C)O)c3)CC2)ccc1CN1CCN[C@@H](C)C1` [Example 58, Trans-4-({3-[(2-hydroxy-2-methylpropoxy)methyl]phenyl}amino)-N-methyl-N-(3-methyl-4-{[(3S)-3-methylpiperazin-1-yl]methyl}phenyl)cyclohexanecarboxamide hydrochloride]: the pEC50 was 9.05.
